The text below walks through data of PMC6834760 (2019).

The subject of the assay is Apt(ATP) (DNA, aptamer) TCTCTCACCTGGGGGAGTATTGCGGAGGAAGGT
Put plainly: FAM fluorescence quenching titration. Conditions: 100 mM NaCl, 5 mM MgCl2, 20 mM Tris-HCl, pH 7.4, 66.7 nM aptamer.

As to `Nc1ccn([C@@H]2O[C@H](COP(=O)(O)OP(=O)(O)OP(=O)(O)O)[C@@H](O)[C@H]2O)c(=O)n1`, the binding result (35.7% quenching at about 330 μM) is given as “weak”.

Take `Nc1nc2c(ncn2[C@@H]2O[C@H](COP(=O)(O)OP(=O)(O)OP(=O)(O)O)[C@@H](O)[C@H]2O)c(=O)[nH]1`: the binding entry (18.6% quenching at about 330 μM) is on record as “weak”. As to `Nc1ncnc2c1ncn2[C@@H]1O[C@H](COP(=O)(O)OP(=O)(O)OP(=O)(O)O)[C@@H](O)[C@H]1O`, the binding entry (67.1% quenching at about 0.33 mM ATP) is listed as “yes”.

As for `O=c1ccn([C@@H]2O[C@H](COP(=O)(O)OP(=O)(O)OP(=O)(O)O)[C@@H](O)[C@H]2O)c(=O)[nH]1`, the binding entry (weaker quenching than ATP, up to about 330 μM) is recorded as “weak”.
